Target: JAK2 (Homo sapiens, UniProt O60674)
Test: HTRF KinEASE cell-free kinase assay with recombinant human JAK2
Format: biochemical

JAK2, sequence (O60674 whole entry): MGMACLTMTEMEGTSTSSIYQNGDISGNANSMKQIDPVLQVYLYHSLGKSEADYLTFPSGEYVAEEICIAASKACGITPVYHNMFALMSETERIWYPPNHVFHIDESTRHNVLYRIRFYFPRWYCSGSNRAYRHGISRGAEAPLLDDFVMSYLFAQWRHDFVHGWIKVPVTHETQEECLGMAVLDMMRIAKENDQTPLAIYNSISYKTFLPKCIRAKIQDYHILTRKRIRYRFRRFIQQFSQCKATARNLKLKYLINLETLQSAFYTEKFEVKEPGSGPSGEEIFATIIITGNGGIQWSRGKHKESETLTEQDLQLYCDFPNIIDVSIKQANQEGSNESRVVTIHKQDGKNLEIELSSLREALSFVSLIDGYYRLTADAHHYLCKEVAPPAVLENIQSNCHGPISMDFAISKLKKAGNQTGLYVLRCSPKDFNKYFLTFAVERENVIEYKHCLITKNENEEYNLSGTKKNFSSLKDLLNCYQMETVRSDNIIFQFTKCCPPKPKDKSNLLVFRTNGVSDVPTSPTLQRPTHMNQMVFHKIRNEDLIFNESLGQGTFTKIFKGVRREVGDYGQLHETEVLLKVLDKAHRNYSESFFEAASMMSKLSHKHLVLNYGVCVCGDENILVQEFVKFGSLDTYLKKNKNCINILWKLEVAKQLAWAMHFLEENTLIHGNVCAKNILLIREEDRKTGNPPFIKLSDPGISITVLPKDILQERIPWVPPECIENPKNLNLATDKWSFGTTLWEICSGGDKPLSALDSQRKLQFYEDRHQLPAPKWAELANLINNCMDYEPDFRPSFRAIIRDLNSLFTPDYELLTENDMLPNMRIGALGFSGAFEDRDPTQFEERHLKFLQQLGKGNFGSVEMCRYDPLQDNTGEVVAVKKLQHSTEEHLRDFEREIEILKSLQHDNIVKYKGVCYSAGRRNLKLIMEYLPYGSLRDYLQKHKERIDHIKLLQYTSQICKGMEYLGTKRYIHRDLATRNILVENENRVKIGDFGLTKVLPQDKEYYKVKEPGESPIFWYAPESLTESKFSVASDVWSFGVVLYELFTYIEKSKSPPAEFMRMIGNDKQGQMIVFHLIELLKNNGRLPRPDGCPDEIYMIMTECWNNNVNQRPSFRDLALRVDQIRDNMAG

COc1ccccc1NC(=O)Cc1cn(O)c2ccccc12 [ZT55]
IC50: 0.031 µM
